Experimental findings from ChEMBL document CHEMBL1764981, “Coumarin-purine ribofuranoside conjugates as new agents against hepatitis C virus” (J Med Chem, 2011) are described below.

The test system of data set [1] is Huh-5-2. The data set can be described thus: Cytotoxicity against human Huh5-2 cells assessed as microscopically detectable alteration in cell morphology by cytostatic determination assay. It is filed as functional.
Data set [2] can be described thus: Selectivity index, ratio of CC50 for human Huh5-2 cells to EC50 for Hepatitis C virus. It is filed as toxicity, cell-based, Huh-5-2. The conditions noted are these: read-out: Ratio CC50/EC50.
Data set [3] has as its system Hepatitis C virus. The data set can be described thus: Antiviral activity against Hepatitis C virus infected in human Huh5-2 cells assessed as […] by viral RNA (luciferase) assay. It is filed as functional, organism-based, Hepacivirus hominis. The conditions noted are these: Huh-5-2. For orientation: Protection from cytopathic effect is a common read-out in antiviral testing.

Data set [4] can be described thus: Solubility of compound in water by HPLC-UV method. It is filed as physicochemical.
Data set [5] concerns Hepatitis C virus. Briefly: Antiviral activity against Hepatitis C virus. It is filed as functional, organism-based. The conditions noted are these: Hepacivirus hominis.

≈ marks a conversion by molar mass, not a printed value. Calls of active or inactive are those of the source. The calls are words filed in the database; no cut-off is given here.

On to `CC1(C)O[C@@H]2[C@H](O1)[C@H](n1c(SCc3cc4cc(Br)ccc4oc3=O)nc3cncnc31)O[C@@H]2CO`, for which the CC50 (commonly the concentration that lowers cell viability or growth by half) in data set [1] is 7.5 µM. The selectivity ratio in data set [2] came to 3.6. The EC50 (in general, the midpoint of the concentration-response curve) in data set [3] turned out to be 2.1 µM.

With `CC(=O)OC[C@H]1O[C@@H](n2c(SCc3cc4cc(Br)ccc4oc3=O)nc3cncnc32)[C@H](OC(C)=O)[C@@H]1OC(C)=O`, in data set [1], the CC50 was 6.7 µM. In addition, the selectivity ratio in data set [2] was found to be 1.4. For the same molecule, the EC50 in data set [3] amounted to 4.9 µM.

On to `COc1cccc2cc(CSc3nc4cncnc4n3[C@@H]3O[C@H](COC(C)=O)[C@@H](OC(C)=O)[C@H]3OC(C)=O)c(=O)oc12`, for which the CC50 in data set [1] stood at 7.5 µM. The concentration in solution in data set [4] (solubility) was 78.3 µg/mL (≈ 131 µM). The selectivity ratio in data set [2] came to 3.3. Also, in data set [3], the EC50 is 2.3 µM.

Turning to `CC(=O)OC[C@H]1O[C@@H](n2c(SCc3cc4cc(Br)cc(Br)c4oc3=O)nc3cncnc32)[C@H](OC(C)=O)[C@@H]1OC(C)=O`, the cytotoxic concentration (CC50) in data set [1] stood at 6 µM. For the same molecule, the selectivity ratio in data set [2] turned out to be 1.2. Further, in data set [3], the EC50 was determined as 4.9 µM.

In the case of `OC[C@H]1O[C@@H](n2c(S)nc3cncnc32)[C@H](O)[C@@H]1O`, in data set [1], the CC50 was over 176 µM. Besides, in data set [3], the EC50 was over 176 µM.

Regarding `CC1(C)O[C@@H]2[C@H](O1)[C@H](n1c(SCc3cc4ccccc4oc3=O)nc3cncnc31)O[C@@H]2CO`, the 50% cytotoxic concentration (CC50) in data set [1] stood at 8.8 µM. Besides, the selectivity ratio in data set [2] came to 3.2. For the same molecule, the 50% effective concentration (EC50) in data set [3] was 2.8 µM.

For the molecule `O=c1oc2ccc(Cl)cc2cc1CSc1nc2cncnc2n1[C@@H]1O[C@H](CO)[C@@H](O)[C@H]1O`, the half-maximal cytotoxic concentration (CC50) in data set [1] worked out at 37 µM. The selectivity ratio in data set [2] is 8.5. Besides, the concentration giving a half-maximal response (EC50) in data set [3] stood at 4.3 µM.

Take `CC(=O)OC[C@H]1O[C@@H](n2c(=S)n([C@@H]3O[C@H](COC(C)=O)[C@@H](OC(C)=O)[C@H]3OC(C)=O)c3ncncc32)[C@H](OC(C)=O)[C@@H]1OC(C)=O`: the CC50 in data set [1] is over 75 µM. The selectivity ratio in data set [2] was over 1.1. Moreover, in data set [3], the concentration for a half-maximal effect (EC50) came to 66 µM. Also, the result in data set [5] was inactive.

Take `COc1cccc2cc(CSc3nc4cncnc4[nH]3)c(=O)oc12`: the CC50 in data set [1] worked out at 94 µM. In data set [4], the concentration in solution (solubility) was 31.6 µg/mL (≈ 92.8 µM). Moreover, the selectivity ratio in data set [2] was found to be 4.8.

For `CC(=O)OC[C@H]1O[C@@H](n2c(SCc3cc4cc(Cl)ccc4oc3=O)nc3cncnc32)[C@H](OC(C)=O)[C@@H]1OC(C)=O`, in data set [1], the CC50 turned out to be 7.5 µM. Further, the selectivity ratio in data set [2] was found to be 2.4. In addition, the 50% effective concentration (EC50) in data set [3] worked out at 3.2 µM.

Consider `CC(=O)OC[C@H]1O[C@@H](n2c(SCc3cc4cc(C)ccc4oc3=O)nc3cncnc32)[C@H](O)[C@@H]1O`, for which the CC50 in data set [1] stood at 16 µM. Besides, in data set [2], the selectivity ratio amounted to 3.5. For the same molecule, the concentration giving a half-maximal response (EC50) in data set [3] was determined as 4.6 µM.

Turning to `CC(=O)OC[C@H]1O[C@@H](n2c(SCc3cc4cc(F)ccc4oc3=O)nc3cncnc32)[C@H](OC(C)=O)[C@@H]1OC(C)=O`, the CC50 in data set [1] came out at 7.6 µM. For the same molecule, the selectivity ratio in data set [2] is 1.2. Further, in data set [3], the EC50 is 6.1 µM.

For `CC(=O)OC[C@H]1O[C@@H](n2c(SCc3cc4cc(Br)ccc4oc3=O)nc3cncnc32)[C@H](O)[C@@H]1O`, the CC50 in data set [1] turned out to be 31 µM. The selectivity ratio in data set [2] was 3.8. Moreover, the half-maximal effective concentration (EC50) in data set [3] was 8.3 µM.

With `COc1cccc2cc(CSc3nc4c(N)ncnc4n3[C@@H]3O[C@H](CO)[C@@H](O)[C@H]3O)c(=O)oc12`, in data set [1], the CC50 is over 103 µM. Also, in data set [2], the selectivity ratio is over 2.4. In addition, in data set [3], the EC50 was determined as 43 µM.

For the molecule `O=c1oc2ccc(F)cc2cc1CSc1nc2cncnc2n1[C@@H]1O[C@H](CO)[C@@H](O)[C@H]1O`, the CC50 in data set [1] amounted to 36 µM. Also, in data set [2], the selectivity ratio was determined as 4.9. The EC50 in data set [3] amounted to 7.4 µM.

As to `CC(=O)OC[C@H]1O[C@@H](n2c(=S)[nH]c3cncnc32)[C@H](OC(C)=O)[C@@H]1OC(C)=O`, the CC50 in data set [1] was over 122 µM. Besides, the 50% effective concentration (EC50) in data set [3] is over 122 µM. For the same molecule, the result in data set [5] was inactive.

For `O=c1oc2ccccc2cc1CSc1nc2cncnc2n1[C@@H]1O[C@H](CO)[C@@H](O)[C@H]1O`, in data set [1], the 50% cytotoxic concentration (CC50) turned out to be 50 µM. Moreover, the selectivity ratio in data set [2] stood at 9.1. Moreover, the EC50 in data set [3] came out at 5.5 µM.

Consider `Nc1ncnc2c1nc(SCc1cc3ccccc3oc1=O)n2[C@@H]1O[C@H](CO)[C@@H](O)[C@H]1O`, for which the CC50 in data set [1] stood at 49 µM. Besides, the selectivity ratio in data set [2] worked out at 1.7. The EC50 in data set [3] was found to be 28 µM.

With `CC(=O)OC[C@H]1O[C@@H](n2c(SCc3cc4cc(F)ccc4oc3=O)nc3cncnc32)[C@H](O)[C@@H]1O`, the 50% cytotoxic concentration (CC50) in data set [1] turned out to be 8.6 µM. The selectivity ratio in data set [2] turned out to be 2.3. Further, in data set [3], the EC50 is 3.8 µM.

In the case of `COc1cccc2cc(CSc3nc4cncnc4n3[C@@H]3O[C@H](CO)[C@@H]4OC(C)(C)O[C@@H]43)c(=O)oc12`, the CC50 in data set [1] stood at 8.4 µM. In data set [4], the solubility (in general, the dissolved amount per volume that the medium holds) was found to be 87.7 µg/mL (≈ 171 µM). Moreover, in data set [2], the selectivity ratio amounted to 5.2. Moreover, the EC50 in data set [3] was determined as 1.6 µM.

In the case of `CC(=O)OC[C@H]1O[C@@H](n2c(SCc3cc4ccccc4oc3=O)nc3cncnc32)[C@H](O)[C@@H]1O`, the cytotoxic concentration (CC50) in data set [1] was found to be 8.7 µM. Further, the selectivity ratio in data set [2] is under 0.98. The concentration for a half-maximal effect (EC50) in data set [3] is over 8.9 µM.

Turning to `Nc1ncnc2c1nc(SCc1cc3cc(Br)cc(Br)c3oc1=O)n2[C@@H]1O[C@H](CO)[C@@H](O)[C@H]1O`, in data set [1], the CC50 came to 36 µM. Besides, the selectivity ratio in data set [2] was determined as 1.4. In data set [3], the 50% effective concentration (EC50) is 26 µM.

With `Nc1ncnc2c1nc(SCc1cc3cc(Br)ccc3oc1=O)n2[C@@H]1O[C@H](CO)[C@@H](O)[C@H]1O`, the cytotoxic concentration (CC50) in data set [1] came out at 41 µM. Also, in data set [2], the selectivity ratio worked out at 1.5. Also, the concentration giving a half-maximal response (EC50) in data set [3] worked out at 27 µM.

For `COc1cccc2cc(CSc3nc4cncnc4n3[C@@H]3O[C@H](CO)[C@@H](O)[C@H]3O)c(=O)oc12`, in data set [1], the CC50 was 47 µM. The same molecule displayed a solubility in data set [4] of 224 µg/mL (≈ 474 µM). The selectivity ratio in data set [2] was found to be 5. In addition, the half-maximal effective concentration (EC50) in data set [3] stood at 9.5 µM.

Turning to `Cc1ccc2oc(=O)c(CSc3nc4cncnc4n3[C@@H]3O[C@H](CO)[C@@H](O)[C@H]3O)cc2c1`, in data set [1], the CC50 worked out at 46 µM. In addition, in data set [2], the selectivity ratio was found to be 5.1. For the same molecule, the EC50 in data set [3] was determined as 9.2 µM.

With `O=c1oc2c(Br)cc(Br)cc2cc1CSc1nc2cncnc2n1[C@@H]1O[C@H](CO)[C@@H](O)[C@H]1O`, the CC50 in data set [1] is 36 µM. Further, in data set [2], the selectivity ratio amounted to 6.1. Also, the EC50 in data set [3] was 5.9 µM.

Turning to `COc1cccc2cc(CSc3nc4cncnc4n3[C@@H]3O[C@H](COC(C)=O)[C@@H](O)[C@H]3O)c(=O)oc12`, the CC50 in data set [1] came to 11 µM. The molecule also registered a solubility in data set [4] of 216 µg/mL (≈ 421 µM). The selectivity ratio in data set [2] amounted to 1.9. Also, in data set [3], the EC50 came to 5.8 µM.

On to `CC(=O)OC[C@H]1O[C@@H](n2c(SCc3cc4cc(Br)cc(Br)c4oc3=O)nc3cncnc32)[C@H](O)[C@@H]1O`, for which the CC50 in data set [1] worked out at 7 µM. For the same molecule, the selectivity ratio in data set [2] worked out at 1. Besides, in data set [3], the EC50 is 6.8 µM.

For the molecule `CC(=O)OC[C@H]1O[C@@H](n2c(SCc3cc4cc(C)ccc4oc3=O)nc3cncnc32)[C@H](OC(C)=O)[C@@H]1OC(C)=O`, in data set [1], the CC50 came to 16 µM. In addition, the selectivity ratio in data set [2] is 2.1. Also, the EC50 in data set [3] was determined as 7.7 µM.

In the case of `CC(=O)OC[C@H]1O[C@@H](n2c(SCc3cc4ccccc4oc3=O)nc3cncnc32)[C@H](OC(C)=O)[C@@H]1OC(C)=O`, the CC50 in data set [1] amounted to 39 µM. In data set [2], the selectivity ratio was 5.9. For the same molecule, the concentration giving a half-maximal response (EC50) in data set [3] was 6.6 µM.
